The source made the active and inactive calls.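 How the source made its calls: active means cell-killing curve crosses a set limit at a concentration no more than twice the top valid dose; inconclusive means flat curve with a 30 to 70% loss, or a poor fit; inactive means signal rising instead of falling, and the rest.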
tested on: TC71 Ewing sarcoma viability, CellTiter-Glo ATP, 72 h; test: TC71 Ewing sarcoma cell killing, confirmation, luminescence, cherry-picked samples, retest (AID 720570)

SMILES | AC35
Cc1cc(C(=O)Nc2ccc3c(c2)C(=O)N(C)[C@@H]2CC[C@@H](CC(=O)NCc4ccc(-c5ccccc5)cc4)O[C@H]2CO3)no1 | 6.73 µM
OCC1OC(n2ccc3c2ncn2ncnc32)C(O)C1O (configuration not stated) | 3.83 µM
C[C@@H]1CN([C@@H](C)CO)C(=O)Cc2cc(N(C)C)ccc2O[C@@H]1CN(C)Cc1ccccc1 | 17.7 µM
CC(=O)Nc1cccc(-c2ccnc3c2CC(C)(C(=O)NCc2ccc(N(C)C)cc2)O3)c1 (configuration not stated) | 7.01 µM
Cc1ccccc1NC(=O)C(=Cc1ccc(C(=O)O)cc1)C(=O)Nc1ccccc1C | 6.67 µM
O=C(O)c1ccc(N/N=C/c2ccc3nccnc3c2)cc1 | 16.3 µM
O=c1[nH]c(/C=C2\C=Nc3ccccc32)c(O)n1Cc1ccccc1F | 20.7 µM
COC(=O)C[C@H]1CC[C@@H]2[C@H](COc3ccc(NC(=O)Nc4cccc(Cl)c4)cc3C(=O)N2C)O1 | 15 µM
Oc1c(C(c2ccc(Cl)cc2)N2CCCC2)cc(Cl)c2cccnc12 (configuration not stated) | 6.32 µM
CC(=NNc1cc(C)c2ccccc2n1)c1ccccn1 | 1.38 µM
C[C@@H]1CN([C@@H](C)CO)C(=O)c2cc(NC(=O)Nc3ccccc3)ccc2O[C@@H]1CN(C)Cc1ccc(C(=O)Nc2ccccc2N)cc1 | 6.58 µM
CC1(C(=O)NCc2ccco2)Cc2c(-c3cccc(C(N)=O)c3)ccnc2O1 (configuration not stated) | 7.99 µM
O=C(Nc1cccc(S(=O)(=O)N2CCCC2)c1)c1ccc(Cl)nc1 | 14 µM
Cc1nc(N)nc(N)c1/C=C/C(C)(C)c1ccc(Cl)cc1 | < 0.011 µM
CCc1ccc(/C=C2\SC(=S)N(CCCC(=O)NCCCN3CCOCC3)C2=O)cc1 | 22.6 µM
C[C@@H]1CN([C@@H](C)CO)C(=O)c2cccc(NC(=O)Nc3cccc4ccccc34)c2O[C@@H]1CN(C)Cc1ccc(C(=O)Nc2ccccc2N)cc1 | 10.8 µM
Nc1ccn([C@@H]2O[C@H](CO)[C@@H](O)C2O)c(=O)n1 (some centres not stated) | 1.22 µM
CC(C)(C)c1ccc(Oc2ccc(N)cn2)cc1 | 4.73 µM
CC(=O)OC1CC(OC2C(O)CC(OC3C(O)CC(OC4CCC5(C)C(CCC6C5CCC5(C)C(C7=CC(=O)OC7)CCC65O)C4)OC3C)OC2C)OC(C)C1OC1OC(CO)C(O)C(O)C1O (configuration not stated) | 0.258 µM
O=C(Nc1ccc(Br)cc1)c1ccc(F)c(S(=O)(=O)N2CCN(c3ccccn3)CC2)c1 | 18.2 µM
COc1ccc(C(=O)NCCNc2nc3cc(C)cc(C)c3cc2C#N)c(OC)c1 | 15.9 µM

SMILES | AC35
C[C@H](CO)N1C[C@H](C)[C@@H](CN(C)Cc2ccc(C(F)(F)F)cc2)OCCCC[C@H](C)Oc2ccc(NS(=O)(=O)c3ccc(F)cc3)cc2C1=O | 17.3 µM
CCN1C/C(=C/c2ccc(OC)c(O)c2)C(=O)/C(=C/c2ccc(OC)c(O)c2)C1 | 22.9 µM
O=C(O)c1ccc(N/N=C/c2ccc3c(c2)OCO3)cc1 | 9.45 µM
C[C@@H]1CN([C@@H](C)CO)S(=O)(=O)c2ccc(C#CC(C)(C)O)cc2O[C@H]1CN(C)Cc1ccc(-c2ccccc2)cc1 | 3.55 µM
C[C@]12CC[C@H]3[C@@H](CC[C@]4(O)C[C@@H](O)CC[C@]34C=O)[C@@]1(O)CC[C@@H]2C1=CC(=O)OC1 | 2.24 µM
C[C@@H]1CN([C@@H](C)CO)C(=O)c2cc(NS(=O)(=O)c3ccccc3)ccc2O[C@@H]1CN(C)Cc1ccc(C(=O)Nc2ccccc2N)cc1 | 10.2 µM
C[C@@H]1O[C@@H](O[C@H]2C[C@@H](O)[C@]3(CO)[C@@H]4C(CC[C@]3(O)C2)[C@@]2(O)CC[C@H](C3COC(=O)C3)[C@@]2(C)C[C@H]4O)[C@H](O)[C@H](O)[C@H]1O (some centres not stated) | 6.91 µM
C[C@]12CC[C@H](O)C[C@H]1CC[C@@H]1C2CC[C@]2(C)[C@@H](C3=CC(=O)OC3)[C@@H](O)C[C@]12O (some centres not stated) | 9.35 µM
COc1ccc(OC)c(-c2nnc3n2N=C(c2ccc(OC)c(OC4CCOC4)c2)CS3)c1 (configuration not stated) | 3.98 µM
CC1(C)Oc2cc3oc(-c4cc(O)cc(O)c4)cc3cc2CC1O (configuration not stated) | 12.5 µM
Cc1cccc(NC(=O)CN2CCN(C(=O)CNC(=O)c3ccc(-c4ccccc4)cc3)CC2)c1C | 8.9 µM
C(=N\Nc1nc2ccccc2[nH]1)/c1ccccn1 | 4.84 µM
CCCNC(=O)N1[C@H](C#N)[C@H](c2ccc(C#Cc3cccc(F)c3)cc2)[C@H]1CO | 16.1 µM
Cc1cccc(/C=C(\c2nc3ccccc3[nH]2)S(=O)(=O)c2ccccc2)c1 | 9.6 µM
Cc1cc2c(C(C)C)c(O)c(O)c(C=O)c2c(O)c1-c1c(C)cc2c(C(C)C)c(O)c(O)c(C=O)c2c1O | 5.02 µM
N#C[C@H]1[C@H](c2ccc(-c3ccccc3F)cc2)[C@@H](CO)N1C(=O)c1ccccn1 | 13.9 µM
COC(=O)CC1(C(=O)OC)Oc2ccc(Br)cc2C(=O)N1c1cccc(Cl)c1Cl (configuration not stated) | 24.9 µM
COc1cc2c(cc1NC(=O)CN(C)Cc1ccc(OC)c(OC)c1)oc1ccccc12 | 14.5 µM
C[C@]12CC[C@H](O)C[C@H]1CC[C@@H]1[C@@H]2CC[C@]2(C)[C@@H](C3=CC(=O)OC3)CC[C@]12O | 2.11 µM
COc1ccc(CN(C)c2ncnc3sccc23)c(OC)c1OC | 16.2 µM
OC[C@H]1O[C@@H](n2cnc3c(NCc4ccco4)ncnc32)[C@H](O)[C@@H]1O | 8.41 µM

SMILES | AC35
C[C@H]1CN([C@@H](C)CO)C(=O)Cc2cc(NC(=O)CCCCCC(=O)Nc3ccccc3N)ccc2O[C@H]1CN(C)Cc1ccc(C(F)(F)F)cc1 | 11.6 µM
CC(=O)ON=C1C=CC(=C(C#N)c2ccccc2)C=C1 | 6.03 µM
Cc1ccc(S(=O)(=O)Nc2ccc3c(c2)C(=O)N([C@@H](C)CO)C[C@@H](C)[C@H](CN(C)Cc2ccc(C(F)(F)F)cc2)OCCCC[C@H](C)O3)cc1 | 11.7 µM
C[C@@H]1CN([C@@H](C)CO)C(=O)c2cccc(NC(=O)CCCCCC(=O)Nc3ccccc3N)c2O[C@@H]1CN(C)Cc1ccc(Oc2ccccc2)cc1 | 10.6 µM
COc1ccc(S(=O)(=O)N2CCCc3nc(-c4ccc(F)cc4)ccc32)cc1 | 7.3 µM
C[C@H]1CN([C@@H](C)CO)C(=O)c2cc(N(C)C)ccc2O[C@H]1CN(C)Cc1ccc(C(=O)Nc2ccccc2N)cc1 | 12.1 µM
CC1(C)N=C(N)N=C(N)N1c1ccc(OCCCOc2ccccc2)c(Cl)c1 | 4.91 µM
C[C@@H]1CN([C@H](C)CO)C(=O)c2cc(NS(=O)(=O)c3ccc(Cl)cc3)ccc2O[C@@H]1CN(C)Cc1ccc(Cl)c(Cl)c1 | 21.5 µM
CC(=O)OC1CC(OC2C(O)CC(OC3C(O)CC(OC4CCC5(C)C(CCC6C5CCC5(C)C(C7=CC(=O)OC7)C(O)CC65O)C4)OC3C)OC2C)OC(C)C1OC1OC(CO)C(O)C(O)C1O (configuration not stated) | 2.35 µM
C[C@H]1CN([C@@H](C)CO)C(=O)c2cc(NC(=O)C3CCCCC3)ccc2O[C@H]1CN(C)Cc1ccc(C(=O)Nc2ccccc2N)cc1 | 11.1 µM
C[C@H](CO)N1C[C@H](C)[C@H](CN(C)Cc2ccc(Oc3ccccc3)cc2)Oc2ccc(NC(=O)CCCCCC(=O)Nc3ccccc3N)cc2CC1=O | 11.5 µM
C[C@]12CCC3C(CCC4=CC(O)CC[C@@]43/C=N/O)C1(O)CCC2C1=CC(=O)OC1 (some centres not stated) | 1.82 µM
CC(=O)OC1CC(OC2C(O)CC(OC3C(O)CC(OC4CCC5(C)C(CCC6C5CC(O)C5(C)C(C7=CC(=O)OC7)CCC65O)C4)OC3C)OC2C)OC(C)C1OC1OC(CO)C(O)C(O)C1O (configuration not stated) | 0.589 µM
CN=c1scc(-c2ccccc2F)n1/N=C/c1ccc(O)c(O)c1O | 16.1 µM
CC[C@@H]1C[C@H]2CC[C@H](O2)[C@H](C)C(=O)O[C@@H](C)C[C@@H]2CC[C@@H](O2)[C@@H](C)C(=O)O[C@H](C)C[C@H]2CC[C@H](O2)[C@H](C)C(=O)O[C@@H](C)C[C@@H]2CC[C@@H](O2)[C@@H](C)C(=O)O1 | 0.0639 µM
C[C@@H]1CCCCO[C@H](CN(C)Cc2ccc(C(=O)Nc3ccccc3N)cc2)[C@@H](C)CN([C@@H](C)CO)C(=O)c2cc(NS(=O)(=O)c3ccc(Cl)cc3)ccc2O1 | 13.6 µM
N#C[C@@H]1[C@H](c2ccc(C#Cc3ccc(F)cc3)cc2)[C@@H](CO)N1C(=O)Nc1ccc(F)cc1 | 10.9 µM
COc1ccc([Si](C)(C)[C@H]2[C@H](CCO)O[C@@]3(C(=O)N(c4ccccc4)c4ccccc43)[C@@H]2C)cc1 | 12.8 µM
C[C@@H]1CN([C@H](C)CO)C(=O)c2cc(N(C)C)ccc2O[C@H]1CN(C)Cc1ccc(C(=O)Nc2ccccc2N)cc1 | 12.5 µM
Oc1cccc(-c2nnc(-c3cccc(O)c3)nn2)c1 | 21.3 µM
C[C@H]1CN([C@@H](C)CO)S(=O)(=O)c2ccc(C#CC(C)(C)O)cc2O[C@@H]1CN(C)Cc1ccc(-c2ccccc2)cc1 | 0.414 µM

SMILES | AC35
CN(C)c1ccc(N=Nc2nc3ccccc3n2C)cc1 | 13.6 µM
C[C@H](CO)N1C[C@H](C)[C@@H](CN(C)Cc2ccc(Oc3ccccc3)cc2)Oc2ccc(NS(=O)(=O)c3ccc(Cl)cc3)cc2CC1=O | 13 µM
COC1C(O)C(C)OC(OC2CCC3(C)C(CCC4C3C(O)CC3(C)C(C5=CC(=O)OC5)CCC43O)C2)C1O (configuration not stated) | 0.699 µM
COc1ccc(C2=Nn3c([n+](C)c4ccccc43)SC2)cc1 | 19.6 µM
C[C@H](CO)N1C[C@H](C)[C@H](CN(C)Cc2ccc(Oc3ccccc3)cc2)Oc2ccc(NC(=O)Cn3cnnn3)cc2CC1=O | 26.9 µM
O=C(N/N=C/c1ccc[nH]1)c1cc(-c2ccc(Cl)cc2)nc2ccccc12 | 15.2 µM
CC(=NNc1ccc2ccccc2n1)c1ccccn1 | 1.57 µM
CCN(Cc1ccccc1)c1ccc(/C=N/N=C(N)N)cc1 | 15.2 µM
Cc1nn(Cc2ccccc2Cl)c2sc(C(=O)Nc3ccccc3N3CCOCC3)cc12 | 13.2 µM
O=C(NCc1ccc(F)cc1)N1[C@H]2CC[C@@H]1C=C(c1ccc(F)cc1OCc1ccccc1)C2 | 13.9 µM
COc1cc(-c2noc(C)c2C#Cc2nccn2C)cc(OC)c1OC | 13.1 µM
C[C@@H]1CN([C@H](C)CO)S(=O)(=O)c2ccc(C#CC(C)(C)O)cc2O[C@H]1CN(C)Cc1ccc(-c2ccccc2)cc1 | 3.05 µM
COc1ccccc1NC(=O)N1CCCCN2[C@H](CO)[C@H](c3ccc(-c4cccc(C)c4)cc3)[C@H]2C1 | 10.9 µM
C[C@H](CO)N1C[C@H](C)[C@H](CN(C)CC2CCCCC2)Oc2ccc(NC(=O)CCCCCC(=O)Nc3ccccc3N)cc2CC1=O | 18.9 µM
Cc1ccc(OCCNC(=O)c2cccc(S(=O)(=O)NCc3ccccc3)c2)cc1 | 6.35 µM
CN(C)c1ccc(C=c2c3ccccc3n3c2c2c([n+]3C)CCCC2)cc1 | 3.96 µM
N#C[C@H]1[C@H](c2ccc(-c3ccccc3F)cc2)[C@@H](CO)N1C(=O)Cc1ccccc1 | 6.75 µM
COc1ccccc1NC(=O)N1[C@@H]2CNC[C@H]1[C@@H]2c1ccc(-c2ccc(C#N)cc2)cc1 | > 23.5 µM (inactive)
C[C@@H]1CN([C@@H](C)CO)C(=O)c2cccc(NS(=O)(=O)c3ccc(F)cc3)c2O[C@@H]1CN(C)Cc1ccc(C(=O)Nc2ccccc2N)cc1 | 8.22 µM
